Legend:
Ross broiler chicks = test: Broiler pen trial, early chick growth to 15 days (organic acids and sodium butyrate); format: in vivo
Description: In a broiler trial four different treatments were used in order to evaluate the possible synergistic effect between organic acids and sodium butyrate.
This pen trial included eight replicates of four treatments (Table 1). Each pen had 74 mixed sex commercial Ross broiler chicks. Birds were fed a wheat-based diet including enzymes. All birds were weighed on days 1, 5, 10 and 15.

Ross broilers = test: Broiler floor pen trial to day 39, formulations with or without calcium butyrate vs Avilamycine; format: in vivo
Description: The objective of this trial was to study and compare two formulations (Table 4) with organic acids and calcium salts of organic acids. One of the formulations included calcium butyrate. Both formulations were compared with a positive and negative control in order to evaluate their possible growth promoting effect evaluated by broiler performance.
Twelve-hundred Ross broilers were divided over 40 floor pens. Each pen contained 15 male and 15 female Ross broilers, one tube feeder and one bell drinker. Feed and water were available ad libitum. All birds received a broiler starter feed from day 0 until day 11 and a broiler finisher meal from day 11 until day 39. […] Pens were assigned to one of four treatments (ten replicate pens for each treatment) using a block randomization. The in feed treatments consisted of: A. no treatment (negative control); B. Avilamycine 10 g/ton (positive control, dosed as Maxus G200 at 50 g/ton); C. Mixture 1, 5000 g/ton and D. mixture 2, 5000 g/ton. In the broiler house the temperature program started on day 0 at 31° C. decreasing 1° C. every two days until 21° C. was reached. The day-night cycle was 23 hours light and 1 hour dark. All birds were weighed at days 0, 11, 25, and 39. Feed usage was measured at days 11, 25 and 39. Live performance data were analyzed as a randomized block design with pen means as the statistical unit. Statistical analysis was performed with Figurepad Instat 2.0 and Microsoft Excel Analysis Toolpak software.

[1] = to 15 days, wheat-based diet, doses as in Table 1
[2] = day 11, Avilamycine 10 g/ton, formulations 5000 g/ton in feed, mean ± SD
[3] = day 25, Avilamycine 10 g/ton, formulations 5000 g/ton in feed, mean ± SD
[4] = day 39, Avilamycine 10 g/ton, formulations 5000 g/ton in feed, mean ± SD

Molecule	Feed conversion ratio based on weight gain, statistical comparison with control/other treatments (Ross broiler chicks; day 15, P<0.039 for the combination)	FCR based on wt gain (Ross broiler chicks; [1]) [a]	Feed consumed (g/bird) (Ross broiler chicks; [1])	Weight gain (g/bird) (Ross broiler chicks; [1]) [a g/bird]	FCR day 11 (Ross broilers; [2]) [a]	WG(g) Day 11 (Ross broilers; [2]) [a g]	Weight gain compared with control groups, in words (Ross broilers; day 25)	FCR day 25 (Ross broilers; [3]) [a]	WG(g) Day 25 (Ross broilers; [3]) [b g]	FCR day 39 (Ross broilers; [4]) [ab]	WG(g) Day 39 (Ross broilers; [4]) [b g]
CCCC(=O)[O-].[Na+] [Treatment B, sodium butyrate]	not statistically different from the control group	1.279	441.3	358.4	–	–	–	–	–	–	–
Avilamycine	–	–	–	–	1.314 ± 0.034	227 ± 7	performed better than the negative control group	1.775 ± 0.135	853 ± 44	1.839 ± 0.061	1981 ± 58

Source: patent publication US7001625B2, “Solid phase synthesis of salts of organic acids including butyric acid” (Kemin Industires, Inc., priority 2001, dated 2006)
